The results in this text go back to US7569354B2, “Cellomics system” (OnChip Cellomics Consortium, priority 2004, dated 2009).

Test [1] relates to blood from a patient suffering from leukemia. The test can be described thus: separation of cells causing leukemia by intake of labeled amino acids. Type of test: cell-based, human. The method, then: Descriptions are provided below for a case in which cells causing leukemia are separated by applying the technique in Example 3 for cell separation. NDB folic acid (Ex465/Em540), 4,4-difluoro-1,3,5,7-tetramethyl-4-bora-3a,4a-diaza-s-indacene-8-propionate labeled ASn, and 4,4-difluoro-5-(2-pyrrole)-4-bora-3a,4a-diaza-s-indacene-3-propionate labeled Thr are added to blood from a patient suffering from leukemia, and the mixture is incubated for 30 minutes at 37° C. Using the NDB folic acid (Ex465/Em540) as a control, the amounts of intaked 4,4-difluoro-3,5,7-tetramethyl-4-bora-3a,4a-diaza-s-indacene-8-propionate labeled ASn (Ex493/Em503) and intaked 4,4-difluoro-5-(2-pyrrole)-4-bora-3a,4a-diaza-s-indacene-3-propionate labeled Thr are measured by detecting the fluorescent intensities of various derivatives of 4,4-difluoro-4-bora-3a,4a-diaza-s-indacene against the fluorescence intensity generated by NDB-labeled folic acid, and cells having high fluorescence intensity with the fluorescence wavelength of around 503 nm, namely cells having a large intake amount of the 4,4-difluoro-1,3,5,7-tetramethyl-4-bora-3a,4a-diaza-s-indacene-8-propionate labeled ASn are sorted with a cell sorter.

Test [2] deals with cells from brain tissue pieces. The test can be described thus: cell separation by cell permeability of NBD-labeled sugars, brain-derived cells. Type of test: cell-based. The note with it: 15 minutes at 37° C., 200 cells processed. The text has this: In Example 2 for cell separation, a case is described in which differences of cells are recognized by measuring differences in cell permeability of a plurality of substrates and then discrete cells are separated. In this example, cells are identified and separated by observing the cell permeability of galactose or fructose against the glucose described in the aforementioned document. Generally, glucose is often used as an energy source for cells, but galactose or fructose is not directly consumed. For instance, when Escherichia coli is cultured in a mixed culture medium of glucose and fructose, glucose is consumed at first, and then […] is consumed when glucose decreases. Therefore, for instance, by measuring cell permeability of various types of substrates using a quantity of intaked glucose as control data, cell separation reflecting the state of cell more accurately can be performed.
In this example, a glucose labeling derivative of 6-(N-(7-nitrobenz-2-oxa-1.3-diazol-4-yl)amino) sugar (Ex465/Em540) (NBD-labeled sugar) is used. […] The culture fluid is exchanged with that not containing the NBD-labeled sugar, and the sample is immediately added to a cell sorter independently developed by the inventors, and cells with the relative fluorescence intensity of 500 or more are separated.

Test [3] deals with cells from a lever tissue. The test can be described thus: cell separation by cell permeability of NBD-labeled sugars, lever tissue cells. Format: cell-based.
For test [4], the system named is neurocyte / pulsating myocardial cell. The note with it: added to culture fluid of the neurocyte side only.
Description: In Example 3, examination is made for whether a beat cycle of the pulsating myocardial cell 2-1 kept in the cell holding zone 2 changes when potassium or glucose, or suspected endocrine disrupter is added to the culture fluid of the neurocyte 3-2 in the cell holding zone 3, or the content is increased.
At first, the same culture fluid is filled in the culture fluid baths 21-1, 21-2, and a beat cycle of the pulsating myocardial cell 2-1 is checked to obtain a myocardial pulsation pattern showing the substantially same cycle as shown in FIG. 49(A).

For “4,4-difluoro-1,3,5,7-tetramethyl-4-bora-3a,4a-diaza-s-indacene-8-propionate labeled ASn”, in test [1] (30 minutes at 37° C., fluorescence around 503 nm, NDB folic acid as control), the “cancerous leukocytes among the sorted cells with large intake, histological examination” value is at least 95%.
As for “4,4-difluoro-5-(2-pyrrole)-4-bora-3a,4a-diaza-s-indacene-3-propionate labeled Thr”, the “intake rate in normal cells against cancer cells” value in test [1] (compared to labeled Asn) is on record as “not so remarkable”.
With `O=[N+]([O-])c1ccc(NCC2OC(O)C(O)C(O)[C@@H]2O)c2nonc12` (some centres unmarked) [NBD-labeled glucose], the “cells obtained with the relative fluorescence intensity of 500 or more” value is listed as 66 cells in test [2] and 46 cells in test [3].
As to `NCCc1ccc(O)c(O)c1` [dopamine, 2-dihydroxyphenylethylamine], in test [4], the “beat cycle of the pulsating myocardial cell” value was “disturbance in the beat cycle”.
